From ChEMBL document CHEMBL3885861, “Open TG-GATES”

Organism: Rattus norvegicus
Assay: Open TG-GATES - Regimen: Daily Repeat
Assay type: toxicity, organism-based, Sprague-Dawley
Design: regimen Daily Repeat, gender Male, age 6 weeks
Details: in vivo, po, route gavage; for APTT / Bas / Eos / Fbg / Hb / Ht / Lym / MCH / MCHC / MCV / Mono / Neu / PT / Plat / RBC / Ret / WBC: tissue Blood; for KIDNEY_L / KIDNEY_R / KIDNEY_TOTAL: tissue Kidney; for LIVER: tissue Liver; for A/G / ALP / ALT / AST / BUN / CRE / Ca / Cl / DBIL / GLC / IP / K / LDH / Na / PL / RALB / TBIL / TC / TG / TP / gamma-GTP: tissue Plasma
[1] = 0 mg/kg, 72 h, dose level Control, time 3 day
[2] = 0 mg/kg, […], dose level Control, time 7 day
[3] = 0 mg/kg, […], dose level Control, time 14 day
[4] = 0 mg/kg, […], dose level Control, time 28 day
[5] = 15 mg/kg, 72 h, dose level Low, time 3 day
[6] = 15 mg/kg, […], dose level Low, time 7 day
[7] = 15 mg/kg, […], dose level Low, time 14 day
[8] = 15 mg/kg, […], dose level Low, time 28 day

Nc1nc(N)c2nc(-c3ccccc3)c(N)nc2n1
TERMINAL_BW [1]: 242.6 g
APTT [1]: 16.3 s
Bas [1]: 0.2%
Eos [1]: 1%
Fbg [1]: 334.2 mg/dL
Hb [1]: 13.8 g/dL
Ht [1]: 40.7%
Lym [1]: 78.8%
MCH [1]: 20.8 pg
MCHC [1]: 33.9%
MCV [1]: 61.3 fL
Mono [1]: 2.2%
Neu [1]: 17.2%
PT [1]: 13.9 s
Plat [1]: 128.5 x10_4/uL
RBC [1]: 664.4 x10_4/ul
Ret [1]: 6.2%
WBC [1]: 102.2 x10_2/uL
KIDNEY_L [1]: 1.1 g
KIDNEY_R [1]: 1.1 g
KIDNEY_TOTAL [1]: 2.1 g
LIVER [1]: 11.1 g
A/G [1]: 0.9
ALP [1]: 1605.2 IU/L
ALT [1]: 41.4 IU/L
AST [1]: 69.4 IU/L
BUN [1]: 15 mg/dL
CRE [1]: 0.2 mg/dL
Ca [1]: 10.9 mg/dL
Cl [1]: 105.2 meq/L
DBIL [1]: 0.01 mg/dL
GLC [1]: 166 mg/dL
IP [1]: 7.7 mg/dL
K [1]: 4.1 meq/L
LDH [1]: 60.2 IU/L
Na [1]: 142.6 meq/L
PL [1]: 152.4 mg/dL
RALB [1]: 2.6 g/dL
TBIL [1]: 0.042 mg/dL
TC [1]: 80.6 mg/dL
TG [1]: 102.4 mg/dL
TP [1]: 5.6 g/dL
gamma-GTP [1]: 1 IU/L
TERMINAL_BW [2]: 286.3 g
TERMINAL_BW [3]: 328 g
TERMINAL_BW [4]: 424 g
APTT [2]: 18 s
Bas [2]: 0%
Eos [2]: 0.6%
Fbg [2]: 302.8 mg/dL
Hb [2]: 13.9 g/dL
Ht [2]: 42.9%
Lym [2]: 78.8%
MCH [2]: 20.6 pg
MCHC [2]: 32.5%
MCV [2]: 63.6 fL
Mono [2]: 2.6%
Neu [2]: 17.6%
PT [2]: 13.3 s
Plat [2]: 136.4 x10_4/uL
RBC [2]: 675.8 x10_4/ul
Ret [2]: 5.9%
WBC [2]: 94 x10_2/uL
APTT [3]: 18.4 s
Bas [3]: 0%
Eos [3]: 1%
Fbg [3]: 313.2 mg/dL
Hb [3]: 14.6 g/dL
Ht [3]: 44.3%
Lym [3]: 78.4%
MCH [3]: 19.5 pg
MCHC [3]: 33%
MCV [3]: 59.2 fL
Mono [3]: 2.6%
Neu [3]: 18%
PT [3]: 13.2 s
Plat [3]: 132.7 x10_4/uL
RBC [3]: 748 x10_4/ul
Ret [3]: 3.7%
WBC [3]: 91.5 x10_2/uL
APTT [4]: 18 s
Bas [4]: 0.6%
Eos [4]: 1.2%
Fbg [4]: 294.6 mg/dL
Hb [4]: 15.4 g/dL
Ht [4]: 46.3%
Lym [4]: 82.6%
MCH [4]: 18.8 pg
MCHC [4]: 33.3%
MCV [4]: 56.5 fL
Mono [4]: 2.2%
Neu [4]: 13.6%
PT [4]: 13 s
Plat [4]: 111.3 x10_4/uL
RBC [4]: 819.6 x10_4/ul
Ret [4]: 2.3%
WBC [4]: 87 x10_2/uL
KIDNEY_L [2]: 1.2 g
KIDNEY_R [2]: 1.2 g
KIDNEY_TOTAL [2]: 2.3 g
KIDNEY_L [3]: 1.2 g
KIDNEY_R [3]: 1.2 g
KIDNEY_TOTAL [3]: 2.4 g
KIDNEY_L [4]: 1.5 g
KIDNEY_R [4]: 1.4 g
KIDNEY_TOTAL [4]: 2.9 g
LIVER [2]: 13.7 g
LIVER [3]: 13.8 g
LIVER [4]: 16.7 g
A/G [2]: 0.9
ALP [2]: 1612.4 IU/L
ALT [2]: 43.2 IU/L
AST [2]: 63.4 IU/L
BUN [2]: 16.2 mg/dL
CRE [2]: 0.2 mg/dL
Ca [2]: 11.1 mg/dL
Cl [2]: 104.4 meq/L
DBIL [2]: 0.014 mg/dL
GLC [2]: 186.2 mg/dL
IP [2]: 7.7 mg/dL
K [2]: 4.3 meq/L
LDH [2]: 63.4 IU/L
Na [2]: 142.4 meq/L
PL [2]: 179.4 mg/dL
RALB [2]: 2.7 g/dL
TBIL [2]: 0.076 mg/dL
TC [2]: 90.2 mg/dL
TG [2]: 133 mg/dL
TP [2]: 5.8 g/dL
gamma-GTP [2]: 1 IU/L
A/G [3]: 0.8
ALP [3]: 1497.6 IU/L
ALT [3]: 34 IU/L
AST [3]: 60 IU/L
BUN [3]: 14.6 mg/dL
CRE [3]: 0.2 mg/dL
Ca [3]: 10.6 mg/dL
Cl [3]: 105.6 meq/L
DBIL [3]: 0.01 mg/dL
GLC [3]: 191.6 mg/dL
IP [3]: 7.5 mg/dL
K [3]: 4 meq/L
LDH [3]: 60.4 IU/L
Na [3]: 143 meq/L
PL [3]: 154.4 mg/dL
RALB [3]: 2.7 g/dL
TBIL [3]: 0.068 mg/dL
TC [3]: 72.8 mg/dL
TG [3]: 141.6 mg/dL
TP [3]: 5.9 g/dL
gamma-GTP [3]: 1 IU/L
A/G [4]: 0.8
ALP [4]: 1077.6 IU/L
ALT [4]: 40 IU/L
AST [4]: 67.4 IU/L
BUN [4]: 16 mg/dL
CRE [4]: 0.2 mg/dL
Ca [4]: 10.8 mg/dL
Cl [4]: 104.2 meq/L
DBIL [4]: 0.012 mg/dL
GLC [4]: 194.8 mg/dL
IP [4]: 6.5 mg/dL
K [4]: 3.8 meq/L
LDH [4]: 76.4 IU/L
Na [4]: 143.4 meq/L
PL [4]: 144.8 mg/dL
RALB [4]: 2.8 g/dL
TBIL [4]: 0.066 mg/dL
TC [4]: 68.2 mg/dL
TG [4]: 149.6 mg/dL
TP [4]: 6.3 g/dL
gamma-GTP [4]: 1 IU/L
TERMINAL_BW [5]: 248.4 g
APTT [5]: 16.1 s
Bas [5]: 0.2%
Eos [5]: 0.6%
Fbg [5]: 310.8 mg/dL
Hb [5]: 14.1 g/dL
Ht [5]: 41.7%
Lym [5]: 78.4%
MCH [5]: 21.8 pg
MCHC [5]: 33.8%
MCV [5]: 64.7 fL
Mono [5]: 2.2%
Neu [5]: 18.2%
PT [5]: 13.8 s
Plat [5]: 132.9 x10_4/uL
RBC [5]: 645.4 x10_4/ul
Ret [5]: 6.8%
WBC [5]: 109.4 x10_2/uL
KIDNEY_L [5]: 1.1 g
KIDNEY_R [5]: 1 g
KIDNEY_TOTAL [5]: 2.1 g
LIVER [5]: 11.6 g
A/G [5]: 0.9
ALP [5]: 1861.8 IU/L
ALT [5]: 41.4 IU/L
AST [5]: 66 IU/L
BUN [5]: 14.8 mg/dL
CRE [5]: 0.2 mg/dL
Ca [5]: 11 mg/dL
Cl [5]: 105.4 meq/L
DBIL [5]: 0.01 mg/dL
GLC [5]: 175.2 mg/dL
IP [5]: 7.8 mg/dL
K [5]: 3.8 meq/L
LDH [5]: 67.2 IU/L
Na [5]: 142.8 meq/L
PL [5]: 159.4 mg/dL
RALB [5]: 2.6 g/dL
TBIL [5]: 0.042 mg/dL
TC [5]: 81.4 mg/dL
TG [5]: 115 mg/dL
TP [5]: 5.6 g/dL
gamma-GTP [5]: 1.2 IU/L
TERMINAL_BW [6]: 282.4 g
TERMINAL_BW [7]: 340.6 g
TERMINAL_BW [8]: 410.6 g
APTT [6]: 16.7 s
Bas [6]: 0%
Eos [6]: 1%
Fbg [6]: 313.2 mg/dL
Hb [6]: 13.7 g/dL
Ht [6]: 42.1%
Lym [6]: 77.2%
MCH [6]: 20.1 pg
MCHC [6]: 32.4%
MCV [6]: 61.9 fL
Mono [6]: 2.4%
Neu [6]: 19.2%
PT [6]: 13.9 s
Plat [6]: 123.2 x10_4/uL
RBC [6]: 679.2 x10_4/ul
Ret [6]: 5.5%
WBC [6]: 88.7 x10_2/uL
APTT [7]: 18 s
Bas [7]: 0%
Eos [7]: 1%
Fbg [7]: 295.2 mg/dL
Hb [7]: 14.5 g/dL
Ht [7]: 44.4%
Lym [7]: 79.2%
MCH [7]: 20.2 pg
MCHC [7]: 32.7%
MCV [7]: 61.6 fL
Mono [7]: 2.2%
Neu [7]: 17.2%
PT [7]: 13.1 s
Plat [7]: 114.4 x10_4/uL
RBC [7]: 720.6 x10_4/ul
Ret [7]: 4.2%
WBC [7]: 94.6 x10_2/uL
APTT [8]: 18.6 s
Bas [8]: 0.2%
Eos [8]: 1.2%
Fbg [8]: 294.8 mg/dL
Hb [8]: 15.6 g/dL
Ht [8]: 46.4%
Lym [8]: 78.6%
MCH [8]: 18.9 pg
MCHC [8]: 33.6%
MCV [8]: 56.3 fL
Mono [8]: 1.8%
Neu [8]: 17.6%
PT [8]: 13.4 s
Plat [8]: 111.2 x10_4/uL
RBC [8]: 825 x10_4/ul
Ret [8]: 2.1%
WBC [8]: 89.6 x10_2/uL
KIDNEY_L [6]: 1.2 g
KIDNEY_R [6]: 1.1 g
KIDNEY_TOTAL [6]: 2.3 g
KIDNEY_L [7]: 1.3 g
KIDNEY_R [7]: 1.2 g
KIDNEY_TOTAL [7]: 2.5 g
KIDNEY_L [8]: 1.4 g
KIDNEY_R [8]: 1.4 g
KIDNEY_TOTAL [8]: 2.8 g
LIVER [6]: 13.1 g
LIVER [7]: 14.6 g
LIVER [8]: 15.5 g
A/G [6]: 0.8
ALP [6]: 1439.8 IU/L
ALT [6]: 39.8 IU/L
AST [6]: 62.6 IU/L
BUN [6]: 14.8 mg/dL
CRE [6]: 0.2 mg/dL
Ca [6]: 11 mg/dL
Cl [6]: 104.6 meq/L
DBIL [6]: 0.016 mg/dL
GLC [6]: 185 mg/dL
IP [6]: 7.9 mg/dL
K [6]: 4 meq/L
LDH [6]: 60.4 IU/L
Na [6]: 143.4 meq/L
PL [6]: 155.6 mg/dL
RALB [6]: 2.6 g/dL
TBIL [6]: 0.074 mg/dL
TC [6]: 75.2 mg/dL
TG [6]: 137 mg/dL
TP [6]: 5.7 g/dL
gamma-GTP [6]: 1.2 IU/L
A/G [7]: 0.9
ALP [7]: 1252.8 IU/L
ALT [7]: 40.2 IU/L
AST [7]: 62.6 IU/L
BUN [7]: 16.2 mg/dL
CRE [7]: 0.2 mg/dL
Ca [7]: 10.4 mg/dL
Cl [7]: 105 meq/L
DBIL [7]: 0.012 mg/dL
GLC [7]: 180.2 mg/dL
IP [7]: 7.5 mg/dL
K [7]: 3.8 meq/L
LDH [7]: 58 IU/L
Na [7]: 143.4 meq/L
PL [7]: 141.6 mg/dL
RALB [7]: 2.7 g/dL
TBIL [7]: 0.068 mg/dL
TC [7]: 67.4 mg/dL
TG [7]: 111.6 mg/dL
TP [7]: 5.8 g/dL
gamma-GTP [7]: 1 IU/L
A/G [8]: 0.8
ALP [8]: 1186.2 IU/L
ALT [8]: 35.6 IU/L
AST [8]: 63.4 IU/L
BUN [8]: 16.2 mg/dL
CRE [8]: 0.3 mg/dL
Ca [8]: 10.7 mg/dL
Cl [8]: 104.6 meq/L
DBIL [8]: 0.01 mg/dL
GLC [8]: 187.6 mg/dL
IP [8]: 6.6 mg/dL
K [8]: 3.9 meq/L
LDH [8]: 54.4 IU/L
Na [8]: 143 meq/L
PL [8]: 140.4 mg/dL
RALB [8]: 2.7 g/dL
TBIL [8]: 0.06 mg/dL
TC [8]: 69.6 mg/dL
TG [8]: 123 mg/dL
TP [8]: 6 g/dL
gamma-GTP [8]: 1 IU/L
